{
  "source": "patent EP2242752B1",
  "about": "“[…] IMIDAZOLES AS HEPATITIS C VIRUS INHIBITORS” (Bristol-Myers Squibb Company, priority 2008, dated 2009)",
  "tested_on": "HCV 1b genotype",
  "experiment": "HCV Replicon assay (HCV 16-377-neo replicon cells)",
  "format": "cell-based",
  "conditions": "Hepatitis C virus; HCV 1b genotype replicon cells; read-out: EC50 ranges against HCV 1b",
  "protocol": "An HCV Replion assay was utilized in the present disclosure, and was prepared, conducted and validated as described in commonly owned PCT/US2006/022197 and in O'Boyle et. al. Antimicrob Agents Chemother. 2005 Apr;49(4): 1346-53.\nHCV 16-377-neo replicon cells were used to test the currently described compound series as well as cells resistant to compound A due to a Y2065H mutation in NS5A (described in application PCT/US2006/022197). The compounds tested were determined to have more than 10-fold less inhibitory activity on cells resistant to compound A than wild-type cells indicating a related mechanism of action between the two compound series. Thus, the compounds of the present disclosure can be effective to inhibit the function of the HCV NS5A protein and are understood to be as effective in combinations as previously described in application PCT/US2006/022197 and commonly owned WO/O4014852. Further, the compounds of the present disclosure can be effective against the HCV 1b genotype. It should also be understood that the compounds of the present disclosure can inhibit multiple genotypes of HCV. […] In one embodiment compounds of the present disclosure are active against the 1a, 1b, 2a, 2b, 3a, 4a, and 5a genotypes.",
  "data": [
    {"smiles": "COC(=O)N[C@@H](C(=O)N1CCC[C@H]1c1nc(-c2ccc(-c3ccc(-c4nc([C@@H]5CCCN5C(=O)[C@H](NC(=O)OC)c5ccccc5)[nH]c4C)cc3)cc2)c[nH]1)c1ccccc1", "note": "[Example E5c, methyl ((1R)-2-((2S)-2-(4-(4'-(2-((2S)-1-((2R)-2-((methoxycarbonyl)amino)-2-phenylacetyl)-2-pyrrolidinyl)-1H-imidazol-4-yl)-4-biphenylyl)-5-methyl-1H-imidazol-2-yl)-1-pyrrolidinyl)-2-oxo-1-phenylethyl)carbam ate]", "values": [
      {"measurement": "EC50", "value": "0.001 to 0.999", "unit": "nM"}
    ]},
    {"smiles": "COC(=O)N[C@@H](C)C(=O)N1CCC[C@H]1c1nc(-c2ccc(-c3ccc(-c4[nH]c([C@@H]5CCCN5C(=O)[C@H](C)NC(=O)OC)nc4C)cc3)cc2)c[nH]1", "note": "[Example E5d, methyl ((1S)-2-((2S)-2-(4-(4'-(2-((2S)-1-(N-(methoxycarbonyl)-L-alanyl)-2-pyrrolidinyl)-4-methyl-1H-imidazol-5-yl)-4-biphenylyl)-1H-imidazol-2-yl)-1-pyrrolidinyl)-1-methyl-2-oxoethyl)carbamate]", "values": [
      {"measurement": "EC50", "value": "0.001 to 0.999", "unit": "nM"}
    ]},
    {"smiles": "COC(=O)N[C@H](C(=O)N1CCC[C@H]1c1nc(-c2ccc(-c3ccc(-c4nc([C@@H]5CCCN5C(=O)[C@@H](NC(=O)OC)C(C)C)[nH]c4C)cc3)cc2)c[nH]1)C(C)C", "note": "[Example E5e, methyl ((1S)-1-(((2S)-2-(4-(4'-(2-((2S)-1-((2S)-2-((methoxycarbonyl)amino)-3-methylbutanoyl)-2-pyrrolidinyl)-1H-imidazol-4-yl)-4-biphenylyl)-5-methyl-1H-imidazol-2-yl)-1-pyrrolidinyl)carbonyl)-2-methylpropyl)carba mate]", "values": [
      {"measurement": "EC50", "value": "0.001 to 0.999", "unit": "nM"}
    ]},
    {"smiles": "COC(=O)N[C@H](C(=O)N1CCC[C@H]1c1nc(-c2ccc(-c3ccc(-c4[nH]c([C@@H]5CCCN5C(=O)[C@@H](NC(=O)OC)[C@@H](C)OC)nc4C)cc3)cc2)c[nH]1)[C@@H](C)OC", "note": "[Example E5f, methyl ((1S,2R)-2-methoxy-1-(((2S)-2-(4-(4'-(2-((2S)-1-(N-(methoxycarbonyl)-O-methyl-L-threonyl)-2-pyrrolidinyl)-4-methyl-1H-imidazol-5-yl)-4-biphenylyl)-1H-imidazol-2-yl)-1-pyrrolidinyl)carbonyl)propyl)carbamate]", "values": [
      {"measurement": "EC50", "value": "0.001 to 0.999", "unit": "nM"}
    ]},
    {"smiles": "Cc1nc([C@@H]2CCCN2C(=O)[C@@H](c2ccccc2)N(C)C)[nH]c1-c1ccc(-c2ccc(-c3[nH]c([C@@H]4CCCN4C(=O)[C@@H](c4ccccc4)N(C)C)nc3C)cc2)cc1", "note": "[Example E5g, (1R,1'R)-2,2'-(4,4'-biphenyldiylbis((4-methyl-1H-imidazole-5,2-diyl)(2S)-2,1-pyrrolidinediyl))bis (N,N-dimethyl-2-oxo-1-phenylethanamine)]", "values": [
      {"measurement": "EC50", "value": "0.001 to 0.999", "unit": "nM"}
    ]},
    {"smiles": "CCN(CC)[C@@H](C(=O)N1CCC[C@H]1c1nc(C)c(-c2ccc(-c3ccc(-c4[nH]c([C@@H]5CCCN5C(=O)[C@@H](c5ccccc5)N(CC)CC)nc4C)cc3)cc2)[nH]1)c1ccccc1", "note": "[Example E5h, (1R,1'R)-2,2'-(4,4'-biphenyldiylbis((4-methyl-1H-imidazole-5,2-diyl)(2S)-2,1-pyrrolidinediyl))bis (N,N-diethyl-2-oxo-1-phenylethanamine)]", "values": [
      {"measurement": "EC50", "value": "0.001 to 0.999", "unit": "nM"}
    ]},
    {"smiles": "Cc1nc([C@@H]2CCCN2C(=O)[C@@H](c2ccccc2)N2CCCCC2)[nH]c1-c1ccc(-c2ccc(-c3[nH]c([C@@H]4CCCN4C(=O)[C@@H](c4ccccc4)N4CCCCC4)nc3C)cc2)cc1", "note": "[Example E5i, 1,1'-(4,4'-biphenyldiylbis((4-methyl-1H-imidazole-5,2-diyl)(2S)-2,1-pyrrolidinediyl((1R )-2-oxo-1-phenyl-2,1-ethanediyl)))dipiper idine]", "values": [
      {"measurement": "EC50", "value": "0.001 to 0.999", "unit": "nM"}
    ]},
    {"smiles": "COC(=O)N[C@@H](C(=O)N1CCC[C@H]1c1nc(C)c(-c2ccc(-c3ccc(-c4[nH]c([C@@H]5CCCN5C(=O)[C@H](NC(=O)OC)c5ccccc5)nc4C)cc3)cc2)[nH]1)c1ccccc1", "note": "[Example E5j, dimethyl (4,4'-biphenyldiylbis((4-methyl-1H-imidazole-5,2-diyl)(2S)-2,1-pyrrolidinediyl((1R )-2-oxo-1-phenyl-2,1-ethanediyl)))biscarb amate]", "values": [
      {"measurement": "EC50", "value": "0.001 to 0.999", "unit": "nM"}
    ]},
    {"smiles": "COC(=O)N[C@@H](C)C(=O)N1CCC[C@H]1c1nc(-c2ccc(-c3ccc(-c4nc([C@@H]5CCCN5C(=O)[C@H](C)NC(=O)OC)[nH]c4C)cc3)cc2)c(C)[nH]1", "note": "[Example E5k, methyl ((1S)-2-((2S)-2-(4-(4'-(2-((2S)-1-(N-(methoxycarbonyl)-L-alanyl)-2-pyrrolidinyl)-5-methyl-1H-imidazol-4-yl)-4-biphenylyl)-5-methyl-1H-imidazol-2-yl)-1-pyrrolidinyl)-1-methyl-2-oxoethyl)carbamate]", "values": [
      {"measurement": "EC50", "value": "0.001 to 0.999", "unit": "nM"}
    ]},
    {"smiles": "COC(=O)N[C@H](C(=O)N1CCC[C@H]1c1nc(-c2ccc(-c3ccc(-c4[nH]c([C@@H]5CCCN5C(=O)[C@@H](NC(=O)OC)C(C)C)nc4C)cc3)cc2)c(C)[nH]1)C(C)C", "note": "[Example E5l, methyl ((1S)-1-(((2S)-2-(4-(4'-(2-((2S)-1-((2S)-2-((methoxycarbonyl)amino)-3-methylbutanoyl)-2-pyrrolidinyl)-4-methyl-1H-imidazol-5-yl)-4-biphenylyl)-5-methyl-1H-imidazol-2-yl)-1-pyrrolidinyl)carbonyl)-2-methylpropyl)carba mate]", "values": [
      {"measurement": "EC50", "value": "0.001 to 0.999", "unit": "nM"}
    ]},
    {"smiles": "COC(=O)N[C@H](C(=O)N1CCC[C@H]1c1nc(-c2ccc(-c3ccc(-c4nc([C@@H]5CCCN5C(=O)[C@@H](NC(=O)OC)[C@@H](C)OC)[nH]c4C)cc3)cc2)c(C)[nH]1)[C@@H](C)OC", "note": "[Example E5m, methyl ((1S,2R)-2-methoxy-1-(((2S)-2-(4-(4'-(2-((2S)-1-(N-(methoxycarbonyl)-O-methyl-L-threonyl)-2-pyrrolidinyl)-5-methyl-1H-imidazol-4-yl)-4-biphenylyl)-5-methyl-1H-imidazol-2-yl)-1-pyrrolidinyl)carbonyl)propyl)carbamate]", "values": [
      {"measurement": "EC50", "value": "0.001 to 0.999", "unit": "nM"}
    ]},
    {"smiles": "COC(=O)N[C@H](C(=O)N1CCC[C@H]1c1nc(-c2ccc(-c3ccc(-c4[nH]c([C@@H]5CCCN5C(=O)[C@@H](NC(=O)OC)C(C)C)nc4CC4OCCCO4)cc3)cc2)c[nH]1)C(C)C", "note": "[Example J14, methyl ((1S)-1-(((2S)-2-(4-(1,3-dioxan-2-ylmethyl)-5-(4'-(2-((2S)-1-((2S)-2-((methoxycarbonyl)amino)-3-methylbutanoyl)-2-pyrrolidinyl)-1H-imidazol-4-yl)-4-biphenylyl)-1H-imidazol-2-yl)-1-pyrrolidinyl)carbonyl)-2-methylpropyl)carba mate]", "values": [
      {"measurement": "EC50", "value": "0.001 to 0.999", "unit": "nM"}
    ]},
    {"smiles": "COC(=O)N[C@H](C(=O)N1CCC[C@H]1c1nc(-c2ccc(-c3ccc(-c4[nH]c([C@@H]5CCCN5C(=O)[C@@H](NC(=O)OC)[C@@H](C)OC)nc4CC(OC)OC)cc3)cc2)c[nH]1)[C@@H](C)OC", "note": "[Example J14a, methyl ((1S,2R)-1-(((2S)-2-(4-(2,2-dimethoxyethyl)-5-(4'-(2-((2S)-1-(N-(methoxycarbonyl)-O-methyl-L-threonyl)-2-pyrrolidinyl)-1H-imidazol-4-yl)-4-biphenylyl)-1H-imidazol-2-yl)-1-pyrrolidinyl)carbonyl)-2-methoxypropyl)car bamate]", "values": [
      {"measurement": "EC50", "value": "0.001 to 0.999", "unit": "nM"}
    ]},
    {"smiles": "COC(=O)N[C@H](C(=O)N1CCC[C@H]1c1nc(-c2ccc(-c3ccc(-c4[nH]c([C@@H]5CCCN5C(=O)[C@@H](NC(=O)OC)C(C)C)nc4CC(OC)OC)cc3)cc2)c[nH]1)C(C)C", "note": "[Example J14a.1, methyl ((1S)-1-(((2S)-2-(4-(2,2-dimethoxyethyl)-5-(4'-(2-((2S)-1-((2S)-2-((methoxycarbonyl)amino)-3-methylbutanoyl)-2-pyrrolidinyl)-1H-imidazol-4-yl)-4-biphenylyl)-1H-imidazol-2-yl)-1-pyrrolidinyl)carbonyl)-2-methylpropyl)carba mate]", "values": [
      {"measurement": "EC50", "value": "0.001 to 0.999", "unit": "nM"}
    ]},
    {"smiles": "COC(=O)Cc1[nH]c([C@@H]2CCCN2C(=O)[C@@H](NC(=O)OC)[C@@H](C)OC)nc1-c1ccc(-c2ccc(-c3c[nH]c([C@@H]4CCCN4C(=O)[C@@H](NC(=O)OC)[C@@H](C)OC)n3)cc2)cc1", "note": "[Example J14b, methyl (2-((2S)-1-(N-(methoxycarbonyl)-O-methyl-L-threonyl)-2-pyrrolidinyl)-4-(4'-(2-((2S)-1-(N-(methoxycarbonyl)-O-methyl-L-threonyl)-2-pyrrolidinyl)-1H-imidazol-4-yl)4-biphenylyl)-1H-imidazol-5-yl)acetate]", "values": [
      {"measurement": "EC50", "value": "0.001 to 0.999", "unit": "nM"}
    ]},
    {"smiles": "COC(=O)Cc1[nH]c([C@@H]2CCCN2C(=O)[C@@H](NC(=O)OC)C(C)C)nc1-c1ccc(-c2ccc(-c3c[nH]c([C@@H]4CCCN4C(=O)[C@@H](NC(=O)OC)C(C)C)n3)cc2)cc1", "note": "[Example J14b.1, methyl (2-((2S)-1-(N-(methoxycarbonyl)-L-valyl)-2-pyrrolidinyl)-4-(4'-(2-((2S)-1-(N-(methoxycarbonyl)-L-valyl)-2-pyrrolidinyl)-1H-imidazol-4-yl)-4-biphenylyl)-1H-imidazol-5-yl)acetate]", "values": [
      {"measurement": "EC50", "value": "0.001 to 0.999", "unit": "nM"}
    ]},
    {"smiles": "CCCc1nc([C@@H]2CCCN2C(=O)[C@H](C)NC(=O)OC)[nH]c1-c1ccc(-c2ccc(-c3c[nH]c([C@@H]4CCCN4C(=O)[C@H](C)NC(=O)OC)n3)cc2)cc1", "note": "[Example J14c, methyl ((1S)-2-((2S)-2-(4-(4'-(2-((2S)-1-(N-(methoxycarbonyl)-L-alanyl)-2-pyrrolidinyl)-4-propyl-1H-imidazol-5-yl)-4-biphenylyl)-1H-imidazol-2-yl)-1-pyrrolidinyl)-1-methyl-2-oxoethyl)carbamate]", "values": [
      {"measurement": "EC50", "value": "0.001 to 0.999", "unit": "nM"}
    ]}
  ]
}
